This passage reports IC50 results from US12448375B2, “Kinase inhibitors for the treatment of neurodegenerative diseases” (Ohio State Innovation Foundation, priority 2019, dated 2025).

What all share (type): biochemical
Holding throughout (settings): HotSpot radiometric assay, 33P-ATP

One assay addresses T1, JNK3 (Homo sapiens, UniProt P53779).
T1 construct: purchased Reaction Biology Corp
The assay can be described thus: HotSpot Kinase Assay (Reaction Biology Corp.), anti-JNK3 activity. How it is done:
(§1) The anti-JNK3 activity of compounds prepared as in the previous examples was evaluated using a Reaction Biology Corp. HotSpot Kinase Assay. Base reaction buffer was 20 mM HEPES (4-(2-hydroxyethyl)-1-piperazineethanesulfonic acid) at pH 7.5 with 10 mM MgCl2, 1 mM EGTA (ethylene glycol-bis(β-aminoethyl ether)-N,N,N′,N′-tetracetic acid), 0.02% Brij™ 35, 0.02 mg/mL BSA (bovine serum albumin), 0.1 mM Na3VO4, 2 mM DTT (dithiothreitol), and 1% DMSO. Required cofactors were added individually to each kinase reaction.
(§2) Activity against related enzymes JNK1 and P38a was further assessed using the same assay.

In a further assay the target is T2, JNK1 (Homo sapiens, UniProt P45983).
T2 construct: purchased Reaction Biology Corp
T2 sequence (P45983 whole entry): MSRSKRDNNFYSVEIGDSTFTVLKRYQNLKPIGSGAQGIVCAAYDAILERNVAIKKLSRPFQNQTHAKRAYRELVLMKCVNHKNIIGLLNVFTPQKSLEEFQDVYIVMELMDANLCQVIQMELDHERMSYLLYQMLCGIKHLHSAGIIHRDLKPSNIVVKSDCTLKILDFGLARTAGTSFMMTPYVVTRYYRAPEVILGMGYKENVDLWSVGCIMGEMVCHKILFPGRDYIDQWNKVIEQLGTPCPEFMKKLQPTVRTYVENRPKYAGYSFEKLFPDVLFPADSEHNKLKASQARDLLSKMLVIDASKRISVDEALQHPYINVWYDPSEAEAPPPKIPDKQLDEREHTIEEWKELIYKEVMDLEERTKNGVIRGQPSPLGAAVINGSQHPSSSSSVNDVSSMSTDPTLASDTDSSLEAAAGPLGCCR
The assay can be described thus: HotSpot Kinase Assay, JNK1. How it is done: as §1, §2

A further assay has as its target T3, p38a (Homo sapiens, UniProt Q16539).
T3 construct: purchased Reaction Biology Corp
The assay can be described thus: HotSpot Kinase Assay, P38a. How it is done:
as §1, §2

T3 sequence (Q16539 whole entry): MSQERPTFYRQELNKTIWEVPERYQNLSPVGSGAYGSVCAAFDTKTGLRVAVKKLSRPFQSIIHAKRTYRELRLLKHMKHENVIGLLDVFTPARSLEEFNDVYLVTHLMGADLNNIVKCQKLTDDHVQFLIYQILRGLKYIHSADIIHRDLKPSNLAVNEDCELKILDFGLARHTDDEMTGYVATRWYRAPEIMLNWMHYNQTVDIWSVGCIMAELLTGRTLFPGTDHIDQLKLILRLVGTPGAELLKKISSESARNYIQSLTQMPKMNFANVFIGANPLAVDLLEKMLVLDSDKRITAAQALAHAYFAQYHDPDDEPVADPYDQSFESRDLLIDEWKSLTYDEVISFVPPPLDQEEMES
T1 sequence (P53779 whole entry): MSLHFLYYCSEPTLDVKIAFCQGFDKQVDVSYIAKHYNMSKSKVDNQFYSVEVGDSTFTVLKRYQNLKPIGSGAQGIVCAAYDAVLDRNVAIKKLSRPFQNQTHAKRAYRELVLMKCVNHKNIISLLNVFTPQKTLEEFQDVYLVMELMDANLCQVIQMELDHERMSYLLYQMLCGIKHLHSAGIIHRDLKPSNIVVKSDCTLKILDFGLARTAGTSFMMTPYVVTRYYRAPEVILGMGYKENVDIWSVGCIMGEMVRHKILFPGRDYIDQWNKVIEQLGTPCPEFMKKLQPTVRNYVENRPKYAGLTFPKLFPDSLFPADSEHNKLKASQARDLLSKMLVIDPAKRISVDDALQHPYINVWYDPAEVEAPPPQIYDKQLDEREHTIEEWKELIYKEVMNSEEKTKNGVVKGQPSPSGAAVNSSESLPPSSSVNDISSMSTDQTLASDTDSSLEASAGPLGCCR

In general, IC50 refers to the concentration needed to halve the response being measured. The low end stands for inhibition by little substance, the high end for a need for much substance. As for `O=C(NC1CNC1)c1cc(-n2ncc3nc(Nc4ccccc4Cl)ncc32)cs1` [Compound 27, N-(azetidin-3-yl)-4-(5-((2-chlorophenyl)amino)-1H-pyrazolo[4,3-d]pyrimidin-1-yl)thiophene-2-carboxamide], the concentration for half-maximal inhibition (IC50) against JNK3, on JNK1 and on p38a was greater than 1 µM in each case.
As for `O=C(NC1CC1)c1cc(-n2ncc3cc(Nc4ccccc4Cl)c(F)cc32)cs1` [Compound 31, 4-(5-((2-chlorophenyl)amino)-6-fluoro-1H-indazol-1-yl)-N-cyclopropylthiophene-2-carboxamide], the concentration for half-maximal inhibition (IC50) against JNK3, against JNK1 and against p38a was less than 0.2 µM in each case.
For `O=C(N[C@H]1CCOC1)c1cc(-n2ncc3cc(Nc4ccccc4Cl)c(F)cc32)cs1` [Compound 32, (S)-4-(5-((2-chlorophenyl)amino)-6-fluoro-1H-indazol-1-yl)-N-(tetrahydrofuran-3-yl)thiophene-2-carboxamide], the IC50 against JNK3, on JNK1 and against p38a was less than 0.2 µM in each case.
As for `O=C(NC1COC1)c1cc(-n2ncc3cc(Nc4ccccc4Cl)c(F)cc32)cs1` [Compound 34, 4-(5-((2-chlorophenyl)amino)-6-fluoro-1H-indazol-1-yl)-N-(oxetan-3-yl)thiophene-2-carboxamide], the values for the IC50 on JNK3, at JNK1 and against p38a were less than 0.2 µM, greater than 1 µM and 0.2 to 1 µM, respectively.
On the same counts, the results for `CC(C)N1CC[C@@H](NC(=O)c2cc(-n3ncc4cc(Nc5ccccc5Cl)ccc43)cs2)C1` [Compound 35, (R)-4-(5-((2-chlorophenyl)amino)-1H-indazol-1-yl)-N-(1-isopropylpyrrolidin-3-yl)thiophene-2-carboxamide] are less than 0.2 µM, 0.2 to 1 µM and 0.2 to 1 µM.
On the same counts, the results for `COCCNC(=O)c1cc(-n2ncc3cc(Nc4ccccc4Cl)c(F)cc32)cs1` [Compound 37, 4-(5-((2-chlorophenyl)amino)-6-fluoro-1H-indazol-1-yl)-N-(2-methoxyethyl)thiophene-2-carboxamide] are less than 0.2 µM, less than 0.2 µM and less than 0.2 µM.
As for `O=C(NC1CCOCC1)c1cc(-n2ncc3cc(Nc4ccccc4Cl)c(F)cc32)cs1` [Compound 38, 4-(5-((2-chlorophenyl)amino)-6-fluoro-1H-indazol-1-yl)-N-(tetrahydro-2H-pyran-4-yl)thiophene-2-carboxamide], the 50% inhibitory concentration (IC50) against JNK3, on JNK1 and against p38a was less than 0.2 µM in each case.
`O=C(NCC(F)F)c1cc(-n2ncc3cc(Nc4ccccc4Cl)c(F)cc32)cs1` [Compound 39, 4-(5-((2-chlorophenyl)amino)-6-fluoro-1H-indazol-1-yl)-N-(2,2-difluoroethyl)thiophene-2-carboxamide]: the IC50 at JNK3, against JNK1 and against p38a was less than 0.2 µM in each case.
As to `CC(=O)N1CC[C@H](NC(=O)c2cc(-n3ncc4cc(Nc5ccccc5Cl)c(F)cc43)cs2)C1` [Compound 40, (S)—N-(1-acetylpyrrolidin-3-yl)-4-(5-((2-chlorophenyl)amino)-6-fluoro-1H-indazol-1-yl)thiophene-2-carboxamide], the 50% inhibitory concentration (IC50) was less than 0.2 µM against JNK3, 0.2 to 1 µM against JNK1 and less than 0.2 µM against p38a.
With `CC(C)NC(=O)c1cc(-n2ncc3cc(Nc4ccccc4Cl)c(F)cc32)cs1` [Compound 44, 4-(5-((2-chlorophenyl)amino)-6-fluoro-1H-indazol-1-yl)-N-isopropylthiophene-2-carboxamide], the IC50 on JNK3, against JNK1 and against p38a was less than 0.2 µM throughout.
Take `CC(C)NC(=O)c1cc(-n2ncc3nc(Oc4ccccc4Cl)ncc32)cs1` [Compound 47, 4-(5-(2-chlorophenoxy)-1H-pyrazolo[4,3-d]pyrimidin-1-yl)-N-isopropylthiophene-2-carboxamide]: the IC50 against JNK3, against JNK1 and at p38a was greater than 1 µM each time.
Turning to `COCC(COC)NC(=O)c1cc(-n2ncc3nc(Oc4ccccc4Cl)ccc32)cs1` [Compound 48, 4-(5-(2-chlorophenoxy)-1H-pyrazolo[4,3-b]pyridin-1-yl)-N-(1,3-dimethoxypropan-2-yl)thiophene-2-carboxamide], the IC50 against JNK3, at JNK1 and on p38a was greater than 1 µM in each case.
As for `CNC(=O)c1cc(-n2ncc3nc(Oc4ccccc4Cl)ccc32)cs1` [Compound 49, 4-(5-(2-chlorophenoxy)-1H-pyrazolo[4,3-b]pyridin-1-yl)-N-methylthiophene-2-carboxamide], the IC50 was 0.2 to 1 µM on JNK3, greater than 1 µM against JNK1 and 0.2 to 1 µM at p38a.
Take `O=C(NC1COC1)c1cc(-n2ncc3nc(Nc4ccccc4Cl)ccc32)cs1` [Compound 52, 4-(5-((2-chlorophenyl)amino)-1H-pyrazolo[4,3-b]pyridin-1-yl)-N-(oxetan-3-yl)thiophene-2-carboxamide]: the values for the IC50 at JNK3, on JNK1 and against p38a were less than 0.2 µM, greater than 1 µM and 0.2 to 1 µM, respectively.
In the case of `O=C(NC(CO)CO)c1cc(-n2ncc3nc(Nc4ccccc4Cl)ccc32)cs1` [Compound 53, 4-(5-((2-chlorophenyl)amino)-1H-pyrazolo[4,3-b]pyridin-1-yl)-N-(1,3-dihydroxypropan-2-yl)thiophene-2-carboxamide], the values for the 50% inhibitory concentration (IC50) on JNK3, on JNK1 and against p38a were less than 0.2 µM, greater than 1 µM and greater than 1 µM, respectively.
Consider `CC(C)NC(=O)c1cc(-n2ncc3nc(Nc4ccccc4Cl)ccc32)cs1` [Compound 54, 4-(5-((2-chlorophenyl)amino)-1H-pyrazolo[4,3-b]pyridin-1-yl)-N-isopropylthiophene-2-carboxamide], for which the IC50 at JNK3 was less than 0.2 µM; against JNK1, 0.2 to 1 µM; against p38a, 0.2 to 1 µM.
On to `COCCNC(=O)c1cc(-n2ncc3nc(Nc4ccccc4Cl)ccc32)cs1` [Compound 55, 4-(5-((2-chlorophenyl)amino)-1H-pyrazolo[4,3-b]pyridin-1-yl)-N-(2-methoxyethyl)thiophene-2-carboxamide], for which the IC50 against JNK3 was less than 0.2 µM; against JNK1, greater than 1 µM; against p38a, 0.2 to 1 µM.
For `COCCNC(=O)c1cc(-n2ncc3nc(Oc4ccccc4Cl)ccc32)cs1` [Compound 56, 4-(5-(2-chlorophenoxy)-1H-pyrazolo[4,3-b]pyridin-1-yl)-N-(2-methoxyethyl)thiophene-2-carboxamide], the IC50 on JNK3 is less than 0.2 µM; against JNK1, 0.2 to 1 µM; at p38a it was 0.2 to 1 µM.
As to `CNC(=O)c1cc(-n2ncc3cc(Oc4ccccc4Cl)cnc32)cs1` [Compound 64, 4-(5-(2-chlorophenoxy)-1H-pyrazolo[3,4-b]pyridin-1-yl)-N-methylthiophene-2-carboxamide], the IC50 was less than 0.2 µM against JNK3, 0.2 to 1 µM against JNK1 and 0.2 to 1 µM on p38a.
With `CNC(=O)c1cc(-n2ncc3cc(Nc4ccccc4Cl)cnc32)c(C)s1` [Compound 65, 4-(5-((2-chlorophenyl)amino)-1H-pyrazolo[3,4-b]pyridin-1-yl)-N,5-dimethylthiophene-2-carboxamide], the half-inhibitory concentration (IC50) against JNK3 was less than 0.2 µM; against JNK1 it was 0.2 to 1 µM; at p38a, less than 0.2 µM.
As to `Cc1sc(C(=O)NC2COC2)cc1-n1ncc2cc(Nc3ccccc3Cl)cnc21` [Compound 68, 4-(5-((2-chlorophenyl)amino)-1H-pyrazolo[3,4-b]pyridin-1-yl)-5-methyl-N-(oxetan-3-yl)thiophene-2-carboxamide], the IC50 against JNK3 is less than 0.2 µM; at JNK1 it was 0.2 to 1 µM; on p38a, greater than 1 µM.
As to `CC1COC(NC(=O)c2cc(-n3ncc4cc(Nc5ccccc5Cl)cnc43)cs2)=N1` (stereo not drawn) [Compound 69, 4-(5-((2-chlorophenyl)amino)-1H-pyrazolo[3,4-b]pyridin-1-yl)-N-(4-methyl-4,5-dihydrooxazol-2-yl)thiophene-2-carboxamide], the results for the IC50 against JNK3, against JNK1 and against p38a were less than 0.2 µM, 0.2 to 1 µM and 0.2 to 1 µM, respectively.
With `O=C(NC1COC1)c1cc(-n2ncc3cc(Oc4ccccc4Cl)cnc32)cs1` [Compound 70, 4-(5-(2-chlorophenoxy)-1H-pyrazolo[3,4-b]pyridin-1-yl)-N-(oxetan-3-yl)thiophene-2-carboxamide], the figures for the concentration for half-maximal inhibition (IC50) against JNK3, on JNK1 and on p38a were less than 0.2 µM, greater than 1 µM and greater than 1 µM, respectively.
Consider `CC(=O)N1CC(NC(=O)c2cc(-n3ncc4cc(Nc5ccccc5Cl)cnc43)cs2)C1` [Compound 71, N-(1-acetylazetidin-3-yl)-4-(5-((2-chlorophenyl)amino)-1H-pyrazolo[3,4-b]pyridin-1-yl)thiophene-2-carboxamide], for which the figures for the IC50 at JNK3, against JNK1 and on p38a were less than 0.2 µM, 0.2 to 1 µM and less than 0.2 µM, respectively.
Consider `O=C(NCCCF)c1cc(-n2ncc3cc(Oc4ccccc4Cl)cnc32)cs1` [Compound 72, 4-(5-(2-chlorophenoxy)-1H-pyrazolo[3,4-b]pyridin-1-yl)-N-(3-fluoropropyl)thiophene-2-carboxamide], for which the half-maximal inhibitory concentration (IC50) is less than 0.2 µM on JNK3, 0.2 to 1 µM against JNK1 and 0.2 to 1 µM at p38a.
Take `CNC(=O)c1cc(-n2ncc3cc(N(C)c4ccccc4OC)c(F)cc32)cs1` [Compound 75, 4-(6-fluoro-5-((2-methoxyphenyl)(methyl)amino)-1H-indazol-1-yl)-N-methylthiophene-2-carboxamide]: the IC50 against JNK3 is less than 0.2 µM; against JNK1, 0.2 to 1 µM; against p38a, 0.2 to 1 µM.
